In patent publication US4994376A, “Detection of bacteroides gingivalis” (priority 1987, dated 1991):
Values joined by “and” are separate entries in the source; they are usually repeats but may differ in a detail not shown here. Identical values can stand only once. Like-named read-outs stand apart in the source and are kept apart here. Peptide text beside a SMILES is read from it.

Experiments:
Type in all cases: biochemical
B. levii = system: B. levii
Description: (§1) The enzyme activity was measured by the chromogenic properties of N-CBz-glycyl-glycyl-L-arginine-β-naphthylamide which upon hydrolysis gives a visible color. The aminopeptidase activities listed in the table reflect the nanomoles of β-naphthylamine liberated after 60 minutes under the conditions described below.
(§2) After mixing, the solution is incubated for 1 hour at 37° C. and then 0.4 ml of a solution of stabilized diazonium salt, Fast Garnet GBC (0.5 mg/ml) in a 1M acetic acid buffer (pH 4.2), containing 10% Tween 20 was added to the mixture. After standing for 15 minutes at room temperature, the color reaction can be read manually by comparison with standard solutions or the absorbancy can be determined using a spectrophotometer at 525 nm. The reaction mixture without enzyme solution is used as a control.

B. loescheii = system: B. loescheii
Description: as §1, §2

B. mel. ss. intermedius = system: B. mel. ss. intermedius
Description: as §1, §2

C. ochracea = system: C. ochracea
Description: as §1, §2

[1] = system: Capnocytophaga gingivalis
Description: as §1, §2

Capnocytophaga sp. = system: Capnocytophaga sp.
Description: as §1, §2

B. corporis = experiment: Aminopeptidase activity on β-naphthylamide substrates
Description: as §1, §2

B. denticola = experiment: as above
Description: as §1, §2

B. intermedius = experiment: as above
Description: as §1, §2

B. melaninogenicus = experiment: as above
Description: as §1, §2

C. sputigena = experiment: as above
Description: as §1, §2

"Anaerobic vibrio" = system: "Anaerobic vibrio"
Description: as §1, §2
(§3) The enzyme activity and the aminopeptidase activities were determined in the manner described above in regard to Table I.

A. seminis = system: A. seminis
Description: as §1, §2, §3

A. viscosus = system: A. viscosus
Description: as §1, §2, §3

Campylobacter sputorum = system: Campylobacter sputorum
Description: as §1, §2, §3

Eikenella corrodens = system: Eikenella corrodens
Description: as §1, §2, §3

Fusobacterium nucleatum = system: Fusobacterium nucleatum
Description: as §1, §2, §3

S. mutans = system: S. mutans
Description: as §1, §2, §3

S. sanguis = system: S. sanguis
Description: as §1, §2, §3

V. parvula = system: V. parvula
Description: as §1, §2, §3

Veillonella sp. = system: Veillonella sp.
Description: as §1, §2, §3

A. equuli = experiment: Aminopeptidase activity on β-naphthylamide substrates
Description: as §1, §2, §3

A. suis = experiment: as above
Description: as §1, §2, §3

F. periodonticum = experiment: as above
Description: as §1, §2, §3

Haemophilus aphrophilus = experiment: as above
Description: as §1, §2, §3

L. fermentum = experiment: as above
Description: as §1, §2, §3

Lactobacillus casei = experiment: as above
Description: as §1, §2, §3

Veillonella alcalesens = experiment: as above
Description: as §1, §2, §3

Q: Which results are given for `NCCCC[C@H](N)C(=O)N1CCC[C@H]1C(=O)O` [Lys-Pro, Lysyl-proline] (H-Lys-Pro-OH)?
A: Aminopeptidase activity (B. levii): 51 and 54; Aminopeptidase activity (B. loescheii): 81 and 89; Aminopeptidase activity (B. mel. ss. intermedius): 54 and 75 and 69; Aminopeptidase activity (C. ochracea): 108; Aminopeptidase activity [1]: 176; Aminopeptidase activity (Capnocytophaga sp.): 35; Aminopeptidase activity (B. corporis): 75; Aminopeptidase activity (B. denticola): 86; Aminopeptidase activity (B. intermedius): 63; Aminopeptidase activity (B. melaninogenicus): 70; Aminopeptidase activity (C. sputigena): 86; Aminopeptidase activity ("Anaerobic vibrio"): 3; Aminopeptidase activity (A. seminis): 0; Aminopeptidase activity (A. viscosus): 5 and 7; Aminopeptidase activity (Campylobacter sputorum): 3; Aminopeptidase activity (Eikenella corrodens): 0; Aminopeptidase activity (Fusobacterium nucleatum): 2 and 1; Aminopeptidase activity (Fusobacterium nucleatum; strain D31A-24, β-naphthylamine liberated after 60 minutes, 37° C.): 2 nmol; Aminopeptidase activity (S. mutans): 14; Aminopeptidase activity (S. sanguis): 5 and 4; Aminopeptidase activity (V. parvula): 0; Aminopeptidase activity (Veillonella sp.): 1; Aminopeptidase activity (A. equuli): 0; Aminopeptidase activity (A. suis): 0; Aminopeptidase activity (F. periodonticum): 1; Aminopeptidase activity (Haemophilus aphrophilus): 0; Aminopeptidase activity (L. fermentum): 0; Aminopeptidase activity (Lactobacillus casei): 0; Aminopeptidase activity (Veillonella alcalesens): 1
